Experimental data published in publication PMC5725799, “Comparative binding properties of the tau PET tracers THK5117, THK5351, PBB3, and T807 in postmortem Alzheimer brains” (Alzheimer's Research & Therapy, 2017).

How the values were obtained:
[1] = target: tau (Homo sapiens, UniProt P10636); assay: Competition binding assay with ^3H-THK5351 in postmortem hippocampus brain homogenates; conditions: vs ^3H-THK5351 1.5 nM, AD hippocampus homogenate; read-out: Ki2 (high-affinity site)
Method: Postmortem brain tissues from three patients with AD and three healthy control subjects were used for the in vitro binding assays. All the brain tissue, which came from the Netherlands Brain Bank, had been homogenized in PBS containing a protease/phosphatase inhibitor (see Table 1).
After 2-h incubation at room temperature, the binding assay was terminated by filtration through glass fiber filters presoaked for at least 3 h in 0.3% polyethylenimine. To do so, the filters were rinsed and filtered three times using cold binding buffer, and then the radiation on the filter was quantified using a Beckman Coulter scintillation counter. The data for the regional binding distribution studies were analyzed using Prism version 7.0 software for Mac (GraphPad Software Inc., La Jolla, CA, USA), and two-way analysis of variance with multiple comparisons was performed.

[2] = tested on: tau; assay: ^3H-THK5351 competition autoradiography with unlabeled THK5351, T807 and deprenyl; assay type: binding, human; conditions: cortical areas
Method: Six adjacent sections from AD1 (see Table 1) were used for competition autoradiography of unlabeled THK5351, T807, and deprenyl. After reaching room temperature, the frozen sections were preincubated for 10 minutes with PBS (pH 7.4) and then incubated for 1 h at room temperature with ^3H-THK5351 (1.5 nM) in addition to 10 μM unlabeled THK5351; 10 μM unlabeled deprenyl; 10 μM unlabeled T807; 10 μM unlabeled THK5351 and 10 μM unlabeled deprenyl; 10 μM unlabeled T807 and 10 μM unlabeled deprenyl. The sections were rinsed three times in cold buffer for 5 minutes, followed by a quick dip in cold distilled water. Nonspecific binding was determined using 10 μM unlabeled THK5351 or 10 μM unlabeled THK5117. […]
(§1) For all the autoradiography studies, the regions of interest were drawn manually on the autoradiogram using multigauge software and were used for the semiquantitative analyses. Photostimulated luminescence per square millimeter (PSL/mm^2) was transformed to picomoles per cubic millimeter using a transformation factor that took into account the resolution of the image, the pixel value for the concentration of ligand, and the thickness of the sections: (PSL/mm^2 value)/([pixel value per pmol] × [(resolution/1000)^2] × [cryosection thickness]/1000).

[3] = tested on: tau; assay: ^18F-T807 autoradiography and competition on large frozen AD brain sections; assay type: binding, human; set-up: Total Binding / NSP Binding: unit not given here; conditions: vs Unlabelled T807
Method: (§2) Adjacent sections were used for autoradiography with ^11C-THK5351, ^11C-PBB3, and ^18F-T807. The frozen sections were allowed to reach room temperature, incubated for 30 minutes at room temperature with ^11C-THK5351 (0.4–0.56 nM; specific activity 356–532 GBq/μmol) or ^11C-PBB3 (0.25–0.34 nM; specific activity 442–794 GBq/μmol) or for 55 minutes at room temperature with ^18F-T807 (0.04 nM; specific activity 281 GBq/μmol). We used 10 μM unlabeled THK5351, 10 μM unlabeled PBB3, and 10 μM unlabeled T807 to determine the extent of nonspecific binding for each tracer. The sections were rinsed three times for 5 minutes each with cold binding buffer, followed by a quick dip in cold distilled water. The sections were dried and exposed for 1 h (for ^11C-THK5351 and ^11C-PBB3) or for 3 h (^18 F-T807) on a phosphor imaging plate and then read using the BAS-2500 phosphor imager.
as §1

[4] = tested on: tau; assay: ^11C-THK5351 autoradiography and competition on large frozen AD brain sections; assay type: binding, human; set-up: Total Binding / NSP Binding: unit not given here
Method: as §2, §1

[5] = AD1, Basal ganglia, vs Unlabelled T807
[6] = AD1, Basal ganglia, vs Unlabelled THK5351
[7] = AD1, Frontal cortex, vs Unlabelled T807
[8] = AD1, Frontal cortex, vs Unlabelled THK5351
[9] = AD1, Insula, vs Unlabelled T807
[10] = AD1, Insula, vs Unlabelled THK5351
[11] = AD1, Temporal cortex, vs Unlabelled T807
[12] = AD1, Temporal cortex, vs Unlabelled THK5351
[13] = AD2, Basal ganglia, vs Unlabelled T807
[14] = AD2, Basal ganglia, vs Unlabelled THK5351
[15] = AD2, Frontal cortex, vs Unlabelled T807
[16] = AD2, Frontal cortex, vs Unlabelled THK5351
[17] = AD2, Insula, vs Unlabelled T807
[18] = AD2, Insula, vs Unlabelled THK5351
[19] = AD2, Temporal cortex, vs Unlabelled T807
[20] = AD2, Temporal cortex, vs Unlabelled THK5351
[21] = AD3, Basal ganglia, vs Unlabelled T807
[22] = AD3, Basal ganglia, vs Unlabelled THK5351
[23] = AD3, Frontal cortex, vs Unlabelled T807
[24] = AD3, Frontal cortex, vs Unlabelled THK5351
[25] = AD3, Insula, vs Unlabelled T807
[26] = AD3, Insula, vs Unlabelled THK5351
[27] = AD3, Temporal cortex, vs Unlabelled T807
[28] = AD3, Temporal cortex, vs Unlabelled THK5351

Chain of tau (Homo sapiens, UniProt P10636) (P10636 623-695 limits assumed): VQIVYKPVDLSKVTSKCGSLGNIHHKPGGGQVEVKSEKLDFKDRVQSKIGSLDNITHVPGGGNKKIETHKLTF

CNc1ccc(-c2ccc3cc(OC[C@H](O)CF)ccc3n2)cn1 [THK5351] was tested, and the Ki [1] was 16 nM and the “^3H-THK5351 binding displaced” value [2] was 70–80%.

[18F]c1ccc(-c2ccc3c(c2)[nH]c2ccncc23)cn1 [^18F-T807, 7-(6-[^18F]fluoropyridin-3yl)-5H-pyrido(4,3-b)indole] was tested, and the “% of specific binding” value ([3]; AD1, Basal ganglia) was 24%, the “NSP Binding” value ([3]; AD1, Basal ganglia) was 1895 and the “Specific Binding” value ([3]; AD1, Basal ganglia) was 599. The “Total Binding” value ([3]; AD1, Basal ganglia) was 2495, the “% of specific binding” value ([3]; AD1, Frontal cortex) was 41% and the “NSP Binding” value ([3]; AD1, Frontal cortex) was 2028. For the same molecule, the “Specific Binding” value ([3]; AD1, Frontal cortex) was 1388, the “Total Binding” value ([3]; AD1, Frontal cortex) was 3416 and the “% of specific binding” value ([3]; AD1, Insula) was 33%. For the same molecule, the “NSP Binding” value ([3]; AD1, Insula) was 1851, the “Specific Binding” value ([3]; AD1, Insula) was 893 and the “Total Binding” value ([3]; AD1, Insula) was 2744. For the same molecule, the “% of specific binding” value ([3]; AD1, Temporal cortex) was 28%, the “NSP Binding” value ([3]; AD1, Temporal cortex) was 2018 and the “Specific Binding” value ([3]; AD1, Temporal cortex) was 784. The “Total Binding” value ([3]; AD1, Temporal cortex) was 2802, the “% of specific binding” value ([3]; AD2, Basal ganglia) was 25% and the “NSP Binding” value ([3]; AD2, Basal ganglia) was 1713. For the same molecule, the “Specific Binding” value ([3]; AD2, Basal ganglia) was 567, the “Total Binding” value ([3]; AD2, Basal ganglia) was 2280 and the “% of specific binding” value ([3]; AD2, Frontal cortex) was 24%. For the same molecule, the “NSP Binding” value ([3]; AD2, Frontal cortex) was 1901, the “Specific Binding” value ([3]; AD2, Frontal cortex) was 586 and the “Total Binding” value ([3]; AD2, Frontal cortex) was 2488. The “Total Binding” value ([3]; AD2, Insula) was 2469, the “% of specific binding” value ([3]; AD2, Temporal cortex) was 46% and the “NSP Binding” value ([3]; AD2, Temporal cortex) was 1801. For the same molecule, the “Specific Binding” value ([3]; AD2, Temporal cortex) was 1526, the “Total Binding” value ([3]; AD2, Temporal cortex) was 3327 and the “% of specific binding” value ([3]; AD3, Basal ganglia) was 31%. For the same molecule, the “NSP Binding” value ([3]; AD3, Basal ganglia) was 1639, the “Specific Binding” value ([3]; AD3, Basal ganglia) was 733 and the “Total Binding” value ([3]; AD3, Basal ganglia) was 2372. The “% of specific binding” value ([3]; AD3, Frontal cortex) was 40%, the “NSP Binding” value ([3]; AD3, Frontal cortex) was 1916 and the “Specific Binding” value ([3]; AD3, Frontal cortex) was 1296. For the same molecule, the “Total Binding” value ([3]; AD3, Frontal cortex) was 3212, the “% of specific binding” value ([3]; AD3, Insula) was 22% and the “NSP Binding” value ([3]; AD3, Insula) was 1836. The “Specific Binding” value ([3]; AD3, Insula) was 509, the “Total Binding” value ([3]; AD3, Insula) was 2346 and the “% of specific binding” value ([3]; AD3, Temporal cortex) was 16%. The “NSP Binding” value ([3]; AD3, Temporal cortex) was 1975, the “Specific Binding” value ([3]; AD3, Temporal cortex) was 374 and the “Total Binding” value ([3]; AD3, Temporal cortex) was 2349.

In the case of [11CH3]Nc1ccc(-c2ccc3cc(OC[C@H](O)CF)ccc3n2)cn1 [^11C-THK5351, (S)-1-fluoro-3-(2-(6-([^11C]methylamino)pyridin-3-yl)quinolin-6-yloxy)propan-2-ol], the “% of specific binding” value [4, 5] is reported as 41%, the “NSP Binding” value [4, 5] is reported as 10866 and the “Specific Binding” value [4, 5] is reported as 7578. The “Total Binding” value [4, 5] was 18444, the “% of specific binding” value [4, 6] was 40% and the “NSP Binding” value [4, 6] was 7577. For the same molecule, the “Specific Binding” value [4, 6] was 5118, the “Total Binding” value [4, 6] was 12694 and the “% of specific binding” value [4, 7] was 24%. For the same molecule, the “NSP Binding” value [4, 7] was 15579, the “Specific Binding” value [4, 7] was 4789 and the “Total Binding” value [4, 7] was 20368. The “% of specific binding” value [4, 8] was 40%, the “NSP Binding” value [4, 8] was 8920 and the “Specific Binding” value [4, 8] was 5917. For the same molecule, the “Total Binding” value [4, 8] was 14837, the “% of specific binding” value [4, 9] was 25% and the “NSP Binding” value [4, 9] was 13255. The “Specific Binding” value [4, 9] was 4421, the “Total Binding” value [4, 9] was 17677 and the “% of specific binding” value [4, 10] was 33%. For the same molecule, the “NSP Binding” value [4, 10] was 8376, the “Specific Binding” value [4, 10] was 4085 and the “Total Binding” value [4, 10] was 12461. The “% of specific binding” value [4, 11] was 14%, the “NSP Binding” value [4, 11] was 14662 and the “Specific Binding” value [4, 11] was 2328. For the same molecule, the “Total Binding” value [4, 11] was 16990, the “% of specific binding” value [4, 12] was 29% and the “NSP Binding” value [4, 12] was 8202. The “Specific Binding” value [4, 12] was 3386, the “Total Binding” value [4, 12] was 11587 and the “% of specific binding” value [4, 13] was 38%. The “NSP Binding” value [4, 13] was 11830, the “Specific Binding” value [4, 13] was 7177 and the “Total Binding” value [4, 13] was 19008. The “% of specific binding” value [4, 14] was 68%, the “NSP Binding” value [4, 14] was 6390 and the “Specific Binding” value [4, 14] was 13566. The “Total Binding” value [4, 14] was 19956, the “% of specific binding” value [4, 15] was 18% and the “NSP Binding” value [4, 15] was 14824. The “Specific Binding” value [4, 15] was 3344, the “Total Binding” value [4, 15] was 18167 and the “% of specific binding” value [4, 16] was 69%. The “NSP Binding” value [4, 16] was 6755, the “Specific Binding” value [4, 16] was 15381 and the “Total Binding” value [4, 16] was 22136. The “% of specific binding” value [4, 17] was 28%, the “NSP Binding” value [4, 17] was 13363 and the “Specific Binding” value [4, 17] was 5076. For the same molecule, the “Total Binding” value [4, 17] was 18439, the “% of specific binding” value [4, 18] was 59% and the “NSP Binding” value [4, 18] was 6886. For the same molecule, the “Specific Binding” value [4, 18] was 9948, the “Total Binding” value [4, 18] was 16834 and the “% of specific binding” value [4, 19] was 39%. The “NSP Binding” value [4, 19] was 13589, the “Specific Binding” value [4, 19] was 8683 and the “Total Binding” value [4, 19] was 22271. For the same molecule, the “% of specific binding” value [4, 20] was 59%, the “NSP Binding” value [4, 20] was 6673 and the “Specific Binding” value [4, 20] was 9437. The “Total Binding” value [4, 20] was 16110, the “% of specific binding” value [4, 21] was 47% and the “NSP Binding” value [4, 21] was 10872. The “Specific Binding” value [4, 21] was 9821, the “Total Binding” value [4, 21] was 20693 and the “% of specific binding” value [4, 22] was 38%. For the same molecule, the “NSP Binding” value [4, 22] was 6733, the “Specific Binding” value [4, 22] was 4207 and the “Total Binding” value [4, 22] was 10939. For the same molecule, the “% of specific binding” value [4, 23] was 38%, the “NSP Binding” value [4, 23] was 14792 and the “Specific Binding” value [4, 23] was 8959. For the same molecule, the “Total Binding” value [4, 23] was 23751, the “% of specific binding” value [4, 24] was 48% and the “NSP Binding” value [4, 24] was 7079. For the same molecule, the “Specific Binding” value [4, 24] was 6431, the “Total Binding” value [4, 24] was 13509 and the “% of specific binding” value [4, 25] was 29%. For the same molecule, the “NSP Binding” value [4, 25] was 13574, the “Specific Binding” value [4, 25] was 5447 and the “Total Binding” value [4, 25] was 19021. The “% of specific binding” value [4, 26] was 37%, the “NSP Binding” value [4, 26] was 6903 and the “Specific Binding” value [4, 26] was 3972. For the same molecule, the “Total Binding” value [4, 26] was 10875, the “% of specific binding” value [4, 27] was 34% and the “NSP Binding” value [4, 27] was 12673. For the same molecule, the “Specific Binding” value [4, 27] was 6479, the “Total Binding” value [4, 27] was 19153 and the “% of specific binding” value [4, 28] was 36%. For the same molecule, the “NSP Binding” value [4, 28] was 6717, the “Specific Binding” value [4, 28] was 3813 and the “Total Binding” value [4, 28] was 10529.
